SMILES strings stand for the structures.

One test has as its system HCT-116. Description: Growth inhibition of CDK8 over-expressing human HCT116 cells by MTT assay. It is filed as functional. On the technique in general: Formazan colour is commonly taken as a measure of viable cells.
For a further test, the system named is HT-29. Description: Growth inhibition of CDK8 over-expressing human HT-29 cells by MTT assay. It counts as functional.
Another test relates to COLO 205. Description: Growth inhibition of CDK8 over-expressing human COLO205 cells by MTT assay. It is filed as functional.
The next test addresses CDK8/Cyclin C (Homo sapiens, UniProt P49336). In words: Inhibition of recombinant human full-length GST/His-fused CDK8/CycC expressed in Sf9 insect cells using RBER-IRStide as substrate after 1 hr in presence of [gamma33P-ATP] by microbeta scintillation counting method.
Test [1] deals with Rho-associated protein kinase 1 (Homo sapiens, UniProt Q13464). Description: Binding affinity to wild-type partial length human ROCK1 (M1 to R415 residues) expressed in mammalian expression system by Kinomescan assay.
Sequence of Rho-associated protein kinase 1 (Q13464 whole entry, the tested form may be a part): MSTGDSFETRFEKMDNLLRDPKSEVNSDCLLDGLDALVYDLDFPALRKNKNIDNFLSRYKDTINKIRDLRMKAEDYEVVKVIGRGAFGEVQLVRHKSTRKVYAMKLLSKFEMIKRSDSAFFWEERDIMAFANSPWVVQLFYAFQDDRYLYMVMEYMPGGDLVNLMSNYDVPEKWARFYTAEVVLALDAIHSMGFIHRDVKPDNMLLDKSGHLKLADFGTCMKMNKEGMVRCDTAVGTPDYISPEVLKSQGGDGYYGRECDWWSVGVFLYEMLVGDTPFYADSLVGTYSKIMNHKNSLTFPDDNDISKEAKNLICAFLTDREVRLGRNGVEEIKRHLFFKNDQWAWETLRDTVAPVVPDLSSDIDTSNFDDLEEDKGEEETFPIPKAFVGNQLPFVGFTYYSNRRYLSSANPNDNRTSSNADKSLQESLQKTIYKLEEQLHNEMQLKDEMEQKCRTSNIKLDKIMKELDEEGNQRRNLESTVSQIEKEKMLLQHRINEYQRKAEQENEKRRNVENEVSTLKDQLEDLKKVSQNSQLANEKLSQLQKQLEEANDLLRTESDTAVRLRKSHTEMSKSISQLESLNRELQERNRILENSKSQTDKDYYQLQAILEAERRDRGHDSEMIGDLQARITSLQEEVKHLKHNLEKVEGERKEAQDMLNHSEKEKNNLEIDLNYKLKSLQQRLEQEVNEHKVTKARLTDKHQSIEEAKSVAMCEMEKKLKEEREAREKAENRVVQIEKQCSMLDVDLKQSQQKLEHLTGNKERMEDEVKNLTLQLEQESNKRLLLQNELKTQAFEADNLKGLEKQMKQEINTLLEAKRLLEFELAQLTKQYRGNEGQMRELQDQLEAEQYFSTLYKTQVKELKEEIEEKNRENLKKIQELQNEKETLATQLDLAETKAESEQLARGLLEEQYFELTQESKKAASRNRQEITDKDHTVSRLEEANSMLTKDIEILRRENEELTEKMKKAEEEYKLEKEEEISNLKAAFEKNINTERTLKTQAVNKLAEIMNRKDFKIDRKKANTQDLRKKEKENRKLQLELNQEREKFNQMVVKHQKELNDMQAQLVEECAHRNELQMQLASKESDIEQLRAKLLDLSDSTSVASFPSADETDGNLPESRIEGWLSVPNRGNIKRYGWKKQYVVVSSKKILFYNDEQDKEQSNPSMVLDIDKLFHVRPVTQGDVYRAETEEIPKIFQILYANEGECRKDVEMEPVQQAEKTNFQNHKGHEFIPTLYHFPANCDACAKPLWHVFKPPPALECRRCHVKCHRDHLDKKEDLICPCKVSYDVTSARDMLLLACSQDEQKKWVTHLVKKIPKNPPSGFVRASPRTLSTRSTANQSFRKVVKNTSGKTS
For test [2], the target named is T1, Cyclin-dependent kinase 19 (Homo sapiens, UniProt Q9BWU1). In words: Binding affinity to wild-type partial length human CDK11 (M1 to N360 residues) expressed in bacterial expression system by Kinomescan assay.
T1 sequence (Q9BWU1 whole entry, the tested form may be a part): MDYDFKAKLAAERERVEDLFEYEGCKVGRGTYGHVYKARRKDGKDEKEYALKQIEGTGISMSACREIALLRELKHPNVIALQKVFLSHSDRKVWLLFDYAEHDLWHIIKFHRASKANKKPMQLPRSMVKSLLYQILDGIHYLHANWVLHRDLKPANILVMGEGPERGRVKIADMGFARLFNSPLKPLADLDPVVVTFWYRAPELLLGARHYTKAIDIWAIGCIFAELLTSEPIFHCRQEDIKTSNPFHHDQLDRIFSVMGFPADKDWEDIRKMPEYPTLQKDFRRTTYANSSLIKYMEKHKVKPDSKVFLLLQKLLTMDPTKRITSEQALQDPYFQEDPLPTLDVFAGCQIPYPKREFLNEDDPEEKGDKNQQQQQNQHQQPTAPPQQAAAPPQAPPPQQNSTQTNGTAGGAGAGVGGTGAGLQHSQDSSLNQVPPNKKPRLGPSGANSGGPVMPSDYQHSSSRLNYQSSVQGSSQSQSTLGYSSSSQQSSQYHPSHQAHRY
In the next test the test system is NHDF. In words: Cytotoxicity against NHDF cells. It is filed as cell-based. As to conditions: Homo sapiens.
The target of test [3] is Cyclin-dependent kinase 8 (Homo sapiens, UniProt P49336). In words: Binding affinity to wild-type partial length human CDK8 (M1 to T360 residues) expressed in bacterial expression system by Kinomescan assay.
Sequence of Cyclin-dependent kinase 8 (P49336 whole entry, the tested form may be a part): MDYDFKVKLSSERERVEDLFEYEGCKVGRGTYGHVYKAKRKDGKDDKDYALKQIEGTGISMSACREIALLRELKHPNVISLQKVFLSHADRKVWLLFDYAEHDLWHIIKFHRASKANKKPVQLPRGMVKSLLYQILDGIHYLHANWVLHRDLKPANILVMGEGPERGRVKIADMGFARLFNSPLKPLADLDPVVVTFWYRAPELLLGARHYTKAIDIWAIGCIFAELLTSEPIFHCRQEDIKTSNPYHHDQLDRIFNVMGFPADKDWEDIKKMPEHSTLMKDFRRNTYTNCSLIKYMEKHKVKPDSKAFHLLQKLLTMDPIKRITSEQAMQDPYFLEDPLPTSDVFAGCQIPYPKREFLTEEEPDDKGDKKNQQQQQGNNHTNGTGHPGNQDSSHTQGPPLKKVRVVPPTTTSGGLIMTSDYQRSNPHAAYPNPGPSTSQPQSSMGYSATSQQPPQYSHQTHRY
For a further test, the system named is HUVEC. Description: Antiproliferative activity against VEGF-stimulated HUVEC. It counts as functional, cell-based. Particulars: Homo sapiens.
Test [4] deals with Rho-associated protein kinase 2 (Homo sapiens, UniProt O75116). Description: Binding affinity to wild-type partial length human ROCK2 (M1 to T431 residues) expressed in mammalian expression system by Kinomescan assay.
Sequence of Rho-associated protein kinase 2 (O75116 whole entry, the tested form may be a part): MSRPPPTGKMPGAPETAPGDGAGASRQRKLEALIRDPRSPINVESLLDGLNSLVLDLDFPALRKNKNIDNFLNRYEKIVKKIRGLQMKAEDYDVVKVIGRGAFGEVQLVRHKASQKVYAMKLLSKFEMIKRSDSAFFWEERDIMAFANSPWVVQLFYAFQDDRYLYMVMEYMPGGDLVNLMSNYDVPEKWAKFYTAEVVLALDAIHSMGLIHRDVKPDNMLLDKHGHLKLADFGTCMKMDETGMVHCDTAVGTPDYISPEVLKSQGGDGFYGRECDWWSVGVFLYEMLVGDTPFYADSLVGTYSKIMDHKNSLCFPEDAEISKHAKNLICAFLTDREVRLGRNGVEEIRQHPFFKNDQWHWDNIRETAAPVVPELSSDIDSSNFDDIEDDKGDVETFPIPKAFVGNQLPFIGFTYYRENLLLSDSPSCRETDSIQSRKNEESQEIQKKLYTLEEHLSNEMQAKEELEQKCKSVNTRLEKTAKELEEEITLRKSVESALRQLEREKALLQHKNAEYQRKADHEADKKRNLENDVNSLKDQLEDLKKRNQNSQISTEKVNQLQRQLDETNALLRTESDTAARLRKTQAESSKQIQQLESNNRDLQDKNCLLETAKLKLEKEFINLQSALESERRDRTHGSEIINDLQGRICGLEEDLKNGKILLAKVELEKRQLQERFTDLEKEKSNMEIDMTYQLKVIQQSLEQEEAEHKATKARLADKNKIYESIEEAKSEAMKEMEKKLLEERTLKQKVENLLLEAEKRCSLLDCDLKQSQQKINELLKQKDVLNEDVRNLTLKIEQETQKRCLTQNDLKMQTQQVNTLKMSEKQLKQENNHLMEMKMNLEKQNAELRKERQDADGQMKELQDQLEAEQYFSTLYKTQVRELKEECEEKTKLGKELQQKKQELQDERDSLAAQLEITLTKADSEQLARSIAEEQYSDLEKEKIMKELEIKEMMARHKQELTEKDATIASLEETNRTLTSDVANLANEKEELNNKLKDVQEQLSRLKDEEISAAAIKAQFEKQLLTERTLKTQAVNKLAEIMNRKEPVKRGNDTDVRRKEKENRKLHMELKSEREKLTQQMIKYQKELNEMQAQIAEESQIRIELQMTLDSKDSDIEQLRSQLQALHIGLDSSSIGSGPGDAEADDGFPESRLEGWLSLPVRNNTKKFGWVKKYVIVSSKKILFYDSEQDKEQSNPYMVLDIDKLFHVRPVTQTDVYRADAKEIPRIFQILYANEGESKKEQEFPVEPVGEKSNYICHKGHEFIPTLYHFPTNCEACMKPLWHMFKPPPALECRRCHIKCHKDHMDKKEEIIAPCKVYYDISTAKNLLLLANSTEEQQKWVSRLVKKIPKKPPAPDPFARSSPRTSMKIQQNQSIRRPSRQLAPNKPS
The target of test [5] is cAMP-dependent protein kinase catalytic subunit alpha (Homo sapiens, UniProt P17612). Description: Binding affinity to wild-type partial length human PKACalpha (G10 to F351 residues) expressed in bacterial expression system by Kinomescan assay.
A short description of test [6]: Selectivity index, ratio of IC50 for NHDF cells to IC50 for VEGF-stimulated HUVEC. Details: species or system Homo sapiens.
The target of test [7] is T2, Serine/threonine-protein kinase haspin (Homo sapiens) (UniProt Q8TF76).
T2 sequence (whole entry): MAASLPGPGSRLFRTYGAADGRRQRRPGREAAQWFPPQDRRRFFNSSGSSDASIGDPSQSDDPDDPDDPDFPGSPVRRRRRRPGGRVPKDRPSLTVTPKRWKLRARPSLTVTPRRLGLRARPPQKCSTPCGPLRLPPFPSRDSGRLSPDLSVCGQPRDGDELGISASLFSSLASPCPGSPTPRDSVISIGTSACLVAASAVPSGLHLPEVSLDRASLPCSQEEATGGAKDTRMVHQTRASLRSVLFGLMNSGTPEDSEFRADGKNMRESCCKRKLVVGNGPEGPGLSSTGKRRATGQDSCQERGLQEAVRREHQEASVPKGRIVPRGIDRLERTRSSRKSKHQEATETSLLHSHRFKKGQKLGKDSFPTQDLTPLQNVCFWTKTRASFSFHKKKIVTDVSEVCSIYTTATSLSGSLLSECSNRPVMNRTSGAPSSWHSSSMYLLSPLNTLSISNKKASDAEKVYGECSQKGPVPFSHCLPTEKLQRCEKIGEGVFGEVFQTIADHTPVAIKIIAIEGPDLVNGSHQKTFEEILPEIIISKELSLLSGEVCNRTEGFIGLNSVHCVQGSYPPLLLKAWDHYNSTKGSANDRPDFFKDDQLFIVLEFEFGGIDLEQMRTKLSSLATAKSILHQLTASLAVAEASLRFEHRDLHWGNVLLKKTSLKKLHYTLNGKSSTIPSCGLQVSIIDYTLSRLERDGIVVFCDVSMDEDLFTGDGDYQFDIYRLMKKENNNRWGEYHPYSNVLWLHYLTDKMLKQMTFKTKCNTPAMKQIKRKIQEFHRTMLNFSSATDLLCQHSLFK
In words: Inhibition of wild-type human partial length HASPIN (I452 to K798 residues) expressed in mammalian expression system at 300 nM by Kinomescan method relative to control.

Test [8] addresses T1, Cyclin-dependent kinase 19. In words: Inhibition of wild-type partial length human CDK11 (M1 to N360 residues) expressed in bacterial expression system at 300 nM by Kinomescan assay.
Test [9] addresses Cyclin-C/Cyclin-dependent kinase 19 (Homo sapiens, UniProt Q9BWU1). Description: Inhibition of recombinant human GST/His-tagged CDK11 (1 to 502 residues)/cyclinC (1 to 283 residues) catalytic domain expressed in insect cells by Lantha screen eu binding assay.

Sequence of CDK8/Cyclin C (P49336 whole entry, the tested form may be a part): as the sequence (P49336 whole entry, the tested form may be a part) above
Sequence of CDK8/Cyclin C (P24863 whole entry, further chain, the tested form may be a part): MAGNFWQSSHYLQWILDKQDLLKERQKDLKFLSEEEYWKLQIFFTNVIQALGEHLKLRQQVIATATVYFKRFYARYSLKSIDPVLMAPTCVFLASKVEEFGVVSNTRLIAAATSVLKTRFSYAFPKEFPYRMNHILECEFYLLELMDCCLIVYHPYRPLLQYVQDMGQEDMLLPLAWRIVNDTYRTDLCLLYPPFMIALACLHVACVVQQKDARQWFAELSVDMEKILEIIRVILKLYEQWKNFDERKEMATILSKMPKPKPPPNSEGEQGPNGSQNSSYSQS
Sequence of Cyclin-C/Cyclin-dependent kinase 19 (Q9BWU1 whole entry, the tested form may be a part): as the sequence (Q9BWU1 whole entry, the tested form may be a part) above
Sequence of Cyclin-C/Cyclin-dependent kinase 19 (P24863 whole entry, further chain, the tested form may be a part): as the sequence (P24863 whole entry, further chain, the tested form may be a part) above

For orientation: GI50 means the concentration at which growth is held to half of that of the control. A lower GI50 goes with greater sensitivity of the cells. What is called IC50 is the concentration at which inhibition is half-maximal. Consider `Cc1ccc(NC(=O)Nc2ccc(Cc3ccncc3)cc2)cc1C`, for which the concentration for 50% growth inhibition (GI50) in the test on HCT-116, in the test with HT-29 and in the test with COLO 205 was 6.43 to 11.3 µM throughout. Further, the IC50 on CDK8/Cyclin C stood at 0.018 µM.

One may read the Kd as a measure of binding affinity in units of concentration. Low readings indicate a tighter complex, high ones a looser complex. Take `CN(C)[C@H]1C[C@@]23CC[C@@]4(O2)C(=CC[C@]2(C)[C@@H](c5ccc6ccncc6c5)CC[C@H]24)C=C3[C@@H](O)[C@@H]1O`: the Kd in [1] is 0.25 µM; in [2] it was 0.01 µM; in test [3], 0.017 µM; in [4], 0.22 µM; in [5], 3.5 µM. The IC50 in the test with NHDF is 6 µM; in the test with HUVEC, 0.0018 µM. Also, the “Ratio IC50” value in test [6] is 3300.

Consider `Fc1ccc2nccc(Nc3ccccc3F)c2c1`, for which the GI50 in the test on HCT-116, in the test with HT-29 and in the test on COLO 205 was 6.43 to 11.3 µM in each case. Besides, the half-maximal inhibitory concentration (IC50) at CDK8/Cyclin C was found to be 0.386 µM.

Usually inhibition stands for the relative decrease from the control value, in per cent. Consider `Cc1ncccc1Oc1sc(C(N)=O)c2c1-c1c(cnn1C)CC2`, for which the inhibition in test [7] and in test [8] was 99% throughout.

With `Cc1ccc(NC(=O)Nc2nnc(-c3cccc(F)c3)s2)cc1C`, the GI50 with HCT-116, in the test with HT-29 and with COLO 205 was 6.43 to 11.3 µM in each case. Besides, on CDK8/Cyclin C, the IC50 is 0.047 µM.

With `CC1CCc2nc(N)c(C#N)c(-c3cccnc3)c2C1` (stereo unspecified), the IC50 in [9] was > 30 µM.

Compound `O=C(/C=C/c1cnccc1-c1ccc(F)cc1)Nc1ccc(CCc2nnco2)cc1` showed an inhibition in test [8] of 94%.

Regarding `N#Cc1ccc2ncnc(NCCc3ccccc3)c2c1`, the dissociation constant Kd in [2] amounted to 0.31 µM; in test [3], 0.83 µM.
